The nature of the data set: in vitro. The conditions noted are these: human, hek293t cells.
With `N#CC(=Cc1cc([N+](=O)[O-])ccc1Cl)C(N)=O` [8-F21, 3-(2-chloro-5-nitrophenyl)-2-cyanoprop-2-enamide], the viability at 48 h, 25 µM is 101%.
For the compound `N#CC(=Cc1cc2c(cc1[N+](=O)[O-])OCO2)C(=O)NC1CCCCC1` [8-F22, 2-cyano-N-cyclohexyl-3-(6-nitro-1,3-dioxaindan-5-yl)prop-2-enamide], the viability at 48 h, 25 µM came to 87.7%.
With `COc1ccc(C=C(C#N)C(=O)Nc2ccccc2[N+](=O)[O-])cc1` [8-G03, 2-cyano-3-(4-methoxyphenyl)-N-(2-nitrophenyl)prop-2-enamide] the figure was 96.8%.
Regarding `CCc1ccc(NC(=O)C(C#N)=Cc2cccnc2)cc1` [8-G04, 2-cyano-N-(4-ethylphenyl)-3-(pyridin-3-yl)prop-2-enamide], the viability at 48 h, 25 µM was 86.1%.
For `CC1CN(C(=O)C(C#N)=Cc2ccc(OC(F)F)cc2)CC(C)O1` (centres unmarked) [8-G05, 3-[4-(difluoromethoxy)phenyl]-2-(2,6-dimethylmorpholine-4-carbonyl)prop-2-enenitrile] the value was 97.8%; for `Cc1c(C=C(C#N)C(=O)Nc2ccccn2)cc(C#N)n1C` [8-G06, 2-cyano-3-(5-cyano-1,2-dimethyl-1H-pyrrol-3-yl)-N-(pyridin-2-yl)prop-2-enamide], 94.1%.
For `Cc1ccsc1C=C(C#N)C(=O)NC1CCCCC1C` (centres unmarked) [8-G07, 2-cyano-N-(2-methylcyclohexyl)-3-(3-methylthiophen-2-yl)prop-2-enamide] the value was 61.1%.
With `N#CC(=Cc1cc(F)ccc1F)C(=O)NC1CCCCC1` [8-G08, 2-cyano-N-cyclohexyl-3-(2,5-difluorophenyl)prop-2-enamide] the figure was 9.88%; with `COc1ccc(C=C(C#N)C(=O)Nc2ccccc2OC)cc1` [8-G09, 2-cyano-N-(2-methoxyphenyl)-3-(4-methoxyphenyl)prop-2-enamide], 80.4%.
In the case of `Cc1ccc(C=C(C#N)C(=O)NC2CCCCC2)cc1C` [8-G10, 2-cyano-N-cyclohexyl-3-(3,4-dimethylphenyl)prop-2-enamide], the viability at 48 h, 25 µM came to 59.4%.
On to `CCc1ccc(C=C(C#N)C(=O)Nc2cc(C)c(Cl)cc2OC)cc1` [8-G11, N-(4-chloro-2-methoxy-5-methylphenyl)-2-cyano-3-(4-ethylphenyl)prop-2-enamide], for which the viability at 48 h, 25 µM was determined as 92%.
With `CC(C)NC(=O)C(C#N)=Cc1ccc(OC(C)C)cc1` [8-G12, 2-cyano-N-(propan-2-yl)-3-[4-(propan-2-yloxy)phenyl]prop-2-enamide] the figure was 64.9%.
With `N#CC(=Cc1cccs1)C(=O)Nc1nccs1` [8-G13, 2-cyano-N-(1,3-thiazol-2-yl)-3-(thiophen-2-yl)prop-2-enamide], the viability at 48 h, 25 µM came to 110%.
With `Cc1cc(C=C(C#N)C(=O)NCc2ccccc2)c(C)n1C1CC1` [8-G14, N-benzyl-2-cyano-3-(1-cyclopropyl-2,5-dimethyl-1H-pyrrol-3-yl)prop-2-enamide] the figure was 74%; with `CSc1ccc(C=C(C#N)C(=O)Nc2c(C)cc(C)cc2C)cc1` [8-G15, 2-cyano-3-[4-(methylsulfanyl)phenyl]-N-(2,4,6-trimethylphenyl)prop-2-enamide], 111%.
For the compound `Cc1ccc(C=C(C#N)C(=O)Nc2ccccc2C)cc1` [8-G16, 2-cyano-N-(2-methylphenyl)-3-(4-methylphenyl)prop-2-enamide], the viability at 48 h, 25 µM amounted to 118%.
With `N#CC(=Cc1ccccc1)C(=O)NC1CCCCCCC1` [8-G17, 2-cyano-N-cyclooctyl-3-phenylprop-2-enamide] the figure was 46.6%; with `COc1cccc(NC(=O)C(C#N)=Cc2ccc(C#N)cc2)c1` [8-G18, 2-cyano-3-(4-cyanophenyl)-N-(3-methoxyphenyl)prop-2-enamide], 60.2%; with `COc1ccc(C=C(C#N)C(=O)Nc2nccs2)cc1O` [8-G19, 2-cyano-3-(3-hydroxy-4-methoxyphenyl)-N-(1,3-thiazol-2-yl)prop-2-enamide], 85%.
For `CC1(C)Cc2cc(C=C(C#N)C(=O)Nc3ccccc3F)ccc2O1` [8-G20, 2-cyano-3-(2,2-dimethyl-2,3-dihydro-1-benzofuran-5-yl)-N-(2-fluorophenyl)prop-2-enamide] the value was 68%; for `CCOc1ccccc1NC(=O)C(C#N)=Cc1c(F)cccc1F` [8-G21, 2-cyano-3-(2,6-difluorophenyl)-N-(2-ethoxyphenyl)prop-2-enamide], 78.1%; for `CCOc1ccc(C=C(C#N)C(=O)N2CCc3sccc3C2)cc1` [8-G22, 3-(4-ethoxyphenyl)-2-{4H,5H,6H,7H-thieno[3,2-c]pyridine-5-carbonyl}prop-2-enenitrile], 61.5%.
For the compound `N#CC(=Cc1ccc2c(c1)OCCO2)C(=O)NCc1ccccc1` [8-H03, N-benzyl-2-cyano-3-(2,3-dihydro-1,4-benzodioxin-6-yl)prop-2-enamide], the viability at 48 h, 25 µM came to 127%.
For `N#CC(=Cc1cccc(F)c1F)C(=O)NC(N)=O` [8-H04, {2-cyano-2-[(2,3-difluorophenyl)methylidene]acetyl}urea] the value was 89.9%; for `CCCn1c(C)cc(C=C(C#N)C(=O)Nc2ccccc2)c1C` [8-H05, 2-cyano-3-(2,5-dimethyl-1-propyl-1H-pyrrol-3-yl)-N-phenylprop-2-enamide], 108%; for `N#CC(=Cc1c[nH]nc1-c1ccccc1F)C(=O)Nc1ccccc1F` [8-H06, 2-cyano-N-(2-fluorophenyl)-3-[3-(2-fluorophenyl)-1H-pyrazol-4-yl]prop-2-enamide], 90.8%.
For `COc1cc(C=C(C#N)C(=O)Nc2ccc(F)cc2)cc(Cl)c1O` [8-H07, 3-(3-chloro-4-hydroxy-5-methoxyphenyl)-2-cyano-N-(4-fluorophenyl)prop-2-enamide] the value was 87.7%; for `COc1ccccc1NC(=O)C(C#N)=Cc1ccco1` [8-H08, 2-cyano-3-(furan-2-yl)-N-(2-methoxyphenyl)prop-2-enamide], 93%.
For `Cc1ccccc1NC(=O)C(C#N)=Cc1cccc2ccccc12` [8-H09, 2-cyano-N-(2-methylphenyl)-3-(naphthalen-1-yl)prop-2-enamide], the viability at 48 h, 25 µM is 88.4%.
Consider `N#CC(C(=O)Nc1ccccc1)=C1NCCCN1` [8-H10, 2-cyano-2-(1,3-diazinan-2-ylidene)-N-phenylacetamide], for which the viability at 48 h, 25 µM was found to be 97.7%.
`Cc1ccc(NC(=O)C(C#N)=Cc2cccc(C(F)(F)F)c2)c(C)c1` [8-H11, 2-cyano-N-(2,4-dimethylphenyl)-3-[3-(trifluoromethyl)phenyl]prop-2-enamide]: the viability at 48 h, 25 µM worked out at 75%.
Consider `Cc1ccc(C=C(C#N)C(=O)NCCc2ccccc2)o1` [8-H12, 2-cyano-3-(5-methylfuran-2-yl)-N-(2-phenylethyl)prop-2-enamide], for which the viability at 48 h, 25 µM came out at 118%.
As to `COc1ccc(C=C(C#N)C(=O)NC2CCCCC2)cc1O` [8-H13, 2-cyano-N-cyclohexyl-3-(3-hydroxy-4-methoxyphenyl)prop-2-enamide], the viability at 48 h, 25 µM came to 86.5%.
Turning to `CCCCNC(=O)C(C#N)=Cc1ccc(F)cc1F` [8-H14, N-butyl-2-cyano-3-(2,4-difluorophenyl)prop-2-enamide], the viability at 48 h, 25 µM came to 103%.
For `CC(C)NC(=O)C(C#N)=Cc1cccs1` [8-H15, 2-cyano-N-(propan-2-yl)-3-(thiophen-2-yl)prop-2-enamide] the value was 117%; for `N#CC(=Cc1cn(-c2ccccc2)nc1-c1ccc(Cl)cc1)C(N)=O` [8-H16, 3-[3-(4-chlorophenyl)-1-phenyl-1H-pyrazol-4-yl]-2-cyanoprop-2-enamide], 125%; for `N#CC(=Cc1ccc(Cl)cc1Cl)C(N)=O` [8-H17, 2-cyano-3-(2,4-dichlorophenyl)prop-2-enamide], 93.6%.
With `N#CC(=Cc1ccccc1OC(F)F)C(=O)NC1CCCCC1` [8-H18, 2-cyano-N-cyclohexyl-3-[2-(difluoromethoxy)phenyl]prop-2-enamide] the figure was 20.8%; with `COc1ccc(C=C(C#N)C(=O)Nc2ccc3c(c2)OCCO3)cc1O` [8-H19, 2-cyano-N-(2,3-dihydro-1,4-benzodioxin-6-yl)-3-(3-hydroxy-4-methoxyphenyl)prop-2-enamide], 99.8%; with `CN1C=C(C(F)(F)F)C=CC1=C(C#N)C(=O)Nc1ccccc1F` [8-H20, 2-cyano-N-(2-fluorophenyl)-2-[1-methyl-5-(trifluoromethyl)-1,2-dihydropyridin-2-ylidene]acetamide], 90.1%.
For `COc1cc(C=C(C#N)C(=O)NC2CCCCC2)cc(Cl)c1O` [8-H21, 3-(3-chloro-4-hydroxy-5-methoxyphenyl)-2-cyano-N-cyclohexylprop-2-enamide], the viability at 48 h, 25 µM came to 92.7%.
For `N#CC(C(=O)Nc1ccc(Cl)cc1)=C(S)Nc1ccccc1` [8-H22, N-(4-chlorophenyl)-2-cyano-3-(phenylamino)-3-sulfanylprop-2-enamide] the value was 78.8%; for `COc1ccc(C=C(C#N)C(=O)Nc2cccc([N+](=O)[O-])c2)cc1` [8-I03, 2-cyano-3-(4-methoxyphenyl)-N-(3-nitrophenyl)prop-2-enamide], 105%; for `COc1ccc(NC(=O)C(C#N)=Cc2c(C)n[nH]c2C)cc1` [8-I04, 2-cyano-3-(3,5-dimethyl-1H-pyrazol-4-yl)-N-(4-methoxyphenyl)prop-2-enamide], 84.7%.
For `COc1ccc(C=C(C#N)C(=O)Nc2ccc(C)c(C)c2)cc1` [8-I05, 2-cyano-N-(3,4-dimethylphenyl)-3-(4-methoxyphenyl)prop-2-enamide] the value was 87.4%; for `CC1CCCCC1NC(=O)C(C#N)=Cc1ccc(N2CCOCC2)cc1` (centres unmarked) [8-I06, 2-cyano-N-(2-methylcyclohexyl)-3-[4-(morpholin-4-yl)phenyl]prop-2-enamide], 52.8%.
Turning to `Cc1cccc(C)c1NC(=O)C(C#N)=Cc1ccsc1` [8-I07, 2-cyano-N-(2,6-dimethylphenyl)-3-(thiophen-3-yl)prop-2-enamide], the viability at 48 h, 25 µM amounted to 85.3%.

For orientation: viability means a read-out of living cells in per cent, often relative to untreated cells.

(Values after PMC11995724, “Antibiotic target discovery by integrated phenotypic and activity-based profiling of electrophilic fragments” (Cell chemical biology, 2025).)
